# Tested on: diarrhea-predominant IBS subjects
# Format: in vivo, human
# Settings: Cilansetron 2 mg, N=1454
# Procedure: The study was performed in approximately 150 study centers. Approximately 1600 eligible subjects were to be given cilansetron 2 mg TID. At Visit 1, pre-treatment assessments were conducted. […] Subjects were to return to the study site one month later for Visit 3 (Day 31) for their first interim assessment. […] All subjects who discontinued from the study were to have the same post-study assessments required at Visit 7 performed at their early termination visit. […]
# Stool specimens were analyzed at every visit for occult blood. An independent GERB had been established to provide advice on GI AEs during the course of the study.
# Adverse events were assessed at Baseline, at each clinic visit, and at the end of the study (Month 12 or the early termination visit). All AEs, which occurred during the study were followed up in accordance with good medical practice until resolved or judged no longer clinically significant, or if a condition was chronic, until fully characterized. Adverse events could occur in the specified follow-up period and, regardless of the interval since the last administration of the study medication, were treated in the same manner as an AE which occurred during the treatment with study medication. Each AE was evaluated for duration, severity, seriousness, and causal relationship to the investigational drug. The action taken and the outcome were also recorded.
# Specifically, subjects who were lost to follow-up and had no post-Baseline contact with the site were excluded from the Safety population. The subjects who discontinued from the study due to lost to follow-up were identified based on the information collected on the study termination CRF page.
# After the pretreatment assessment at Visit 1 (Days […] to −3), subjects were to return to the study site for a Baseline assessment and start the treatment at Visit 2 (Day 1).
# For the by time-interval analyses of disposition, prevalence of AEs, and of markedly abnormal and predefined changes in laboratory values, vital signs, and ECGs, the following interval windows were used:
# Adverse events that were already present prior to the first dose of cilansetron study medication but increased in severity afterwards were considered as treatment-emergent.
# The 5% cutoff point was based on the incidence within higher level terms.
# Subjects were counted at most once for each primary system organ class and preferred term. Serious AEs that resolved prior to receiving study medication or occurred more than 30 days after the last dose of study medication were not included in the incidence tables. A listing of all SAEs is presented; SAEs with onset prior to receiving study medication or more than 30 days after discontinuation of study medication were flagged. The listing presents lower level term and preferred term of the SAE, severity, action taken, outcome, and relationship of the SAE, start and stop date of the SAE, study day of onset of the SAE, age, race, and sex.
smiles,measurement,value
"Cc1nccn1C[C@H]1CCc2c(c3cccc4c3n2CCC4)C1=O [cilansetron, (R)-(−)-4,5,6,8,9,10-hexahydro-10-[(2-methyl-1H-imidazol-1-yl)methyl]-11H-pyrido-[3,2,1-jk]-carbazol-11-one]",TEAE incidence: Carbohydrate Tolerance Analyses (Incl Diabetes),2 (<1%) n (%)
same,TEAE incidence: Cardiac Enzymes Increased,1 (<1%) n (%)
same,TEAE incidence: Carotid Artery Atheroma,1 (<1%) n (%)
same,TEAE incidence: Carotid Artery Stenosis,1 (<1%) n (%)
same,TEAE incidence: Carpal Tunnel Syndrome,2 (<1%) n (%)
same,TEAE incidence: Cellulitis,1 (<1%) n (%)
same,TEAE incidence: Central Nervous System Haemorrhages and Cerebrovascular Accidents,1 (<1%) n (%)
same,TEAE incidence: Central Nervous system Vascular Disorders NEC,2 (<1%) n (%)
same,TEAE incidence: Cerebral Infarction,1 (<1%) n (%)
same,TEAE incidence: Cervical Root Pain,1 (<1%) n (%)
same,TEAE incidence: Cervical Spinal Cord and Nerve Root Disorders,1 (<1%) n (%)
same,TEAE incidence: Cholesterol Analyses,25 (2%) n (%)
same,TEAE incidence: Colitis Ischaemic,2 (<1%) n (%)
same,TEAE incidence: Colitis NOS,1 (<1%) n (%)
same,TEAE incidence: Colonic Polyp,2 (<1%) n (%)
same,TEAE incidence: Cystitis Acute NOS,5 (<1%) n (%)
same,TEAE incidence: Cystitis NOS,4 (<1%) n (%)
same,TEAE incidence: Defaecation Urgency,1 (<1%) n (%)
same,TEAE incidence: Dental Discomfort,1 (<1%) n (%)
same,TEAE incidence: Dental Pain and Sensation Disorders,13 (<1%) n (%)
same,TEAE incidence: Diaphragmatic Hernias,2 (<1%) n (%)
same,TEAE incidence: Diarrhoea Aggravated,8 (<1%) n (%)
same,TEAE incidence: Diarrhoea Haemorrhagic,1 (<1%) n (%)
same,TEAE incidence: Diarrhoea NOS,73 (5%) n (%)
same,TEAE incidence: Disturbances in Consciousness NEC,5 (<1%) n (%)
same,TEAE incidence: Dizziness,28 (2%) n (%)
same,TEAE incidence: Dry Mouth,3 (<1%) n (%)
same,TEAE incidence: Duodenal Polyp,1 (<1%) n (%)
same,TEAE incidence: Duodenal Ulcer,1 (<1%) n (%)
same,TEAE incidence: Duodenal Ulcers and Perforation,1 (<1%) n (%)
same,TEAE incidence: Duodenitis,2 (<1%) n (%)
same,TEAE incidence: Dysgeusia,2 (<1%) n (%)
same,TEAE incidence: Dyspepsia,50 (3%) n (%)
same,TEAE incidence: Dyspepsia Aggravated,4 (<1%) n (%)
same,TEAE incidence: Dyspeptic Signs and Symptoms,59 (4%) n (%)
same,TEAE incidence: Dysphagia,1 (<1%) n (%)
same,TEAE incidence: Dystonias,1 (<1%) n (%)
same,TEAE incidence: ECG Investigations,25 (2%) n (%)
same,TEAE incidence: Electrocardiogram Abnormal NOS,2 (<1%) n (%)
same,TEAE incidence: Electrocardiogram Change NOS,1 (<1%) n (%)
same,TEAE incidence: Electrocardiogram Pr Interval Prolonged,1 (<1%) n (%)
same,TEAE incidence: Electrocardiogram Pr Shortened,1 (<1%) n (%)
same,TEAE incidence: Electrocardiogram Q Waves Normal,1 (<1%) n (%)
same,TEAE incidence: Electrocardiogram Qt Shortened,1 (<1%) n (%)
same,TEAE incidence: Electrocardiogram St Segment Depression,3 (<1%) n (%)
same,TEAE incidence: Electrocardiogram St Segment Elevation,3 (<1%) n (%)
same,TEAE incidence: Electrocardiogram T Wave Abnormal,4 (<1%) n (%)
same,TEAE incidence: Electrocardiogram T Wave Amplitude Decreased,1 (<1%) n (%)
same,TEAE incidence: Electrocardiogram T Wave Inversion,7 (<1%) n (%)
same,TEAE incidence: Eosinophil Count Increased,18 (1%) n (%)
same,TEAE incidence: Eosinophil Percentage Increased,2 (<1%) n (%)
same,TEAE incidence: Epigastric Discomfort,2 (<1%) n (%)
same,TEAE incidence: Epigastric Hernia,1 (<1%) n (%)
same,TEAE incidence: Eructation,5 (<1%) n (%)
same,TEAE incidence: Facial Cranial Nerve Disorders,1 (<1%) n (%)
same,TEAE incidence: Facial Palsy,1 (<1%) n (%)
same,TEAE incidence: Faecal Abnormality NOS,3 (<1%) n (%)
same,TEAE incidence: Faecal Occult Blood Positive,9 (<1%) n (%)
same,TEAE incidence: Faeces Abnormal,51 (4%) n (%)
same,TEAE incidence: Faeces Discoloured,2 (<1%) n (%)
same,TEAE incidence: Faeces Hard,32 (2%) n (%)
same,TEAE incidence: Food Poisoning NOS,1 (<1%) n (%)
same,TEAE incidence: Frequent Bowel Movements,5 (<1%) n (%)
same,TEAE incidence: Gamma-Glutamyltransferase Decreased,1 (<1%) n (%)
same,TEAE incidence: Gamma-Glutamyltransferase Increased,19 (1%) n (%)
same,TEAE incidence: Gastric Erosions,2 (<1%) n (%)
same,TEAE incidence: Gastric Polyps,1 (<1%) n (%)
same,TEAE incidence: Gastric Ulcer,2 (<1%) n (%)
same,TEAE incidence: Gastric Ulcers and Perforation,4 (<1%) n (%)
same,TEAE incidence: Gastritis Aggravated,4 (<1%) n (%)
same,TEAE incidence: Gastritis NOS,13 (<1%) n (%)
same,TEAE incidence: Gastroenteritis NOS,24 (2%) n (%)
same,TEAE incidence: Gastrointestinal Atonic and Hypomotility Disorders NEC,228 (16%) n (%)
same,TEAE incidence: Gastrointestinal Disorders,587 (40%) n (%)
same,TEAE incidence: Gastrointestinal Disorders NEC,2 (<1%) n (%)
same,TEAE incidence: Gastrointestinal Dyskinetic Disorders,1 (<1%) n (%)
same,TEAE incidence: Gastrointestinal Histopathology Procedures,22 (2%) n (%)
same,TEAE incidence: Gastrointestinal Inflammatory Disorders NEC,3 (<1%) n (%)
same,TEAE incidence: Gastrointestinal Motility Disorder NOS,1 (<1%) n (%)
same,TEAE incidence: Gastrointestinal Mucosal Dystrophies and Secretion Disorders,2 (<1%) n (%)
same,TEAE incidence: Gastrointestinal Neoplasms NEC,2 (<1%) n (%)
same,TEAE incidence: Gastrointestinal Pain NOS,2 (<1%) n (%)
same,TEAE incidence: Gastrointestinal Signs and Symptoms NEC,12 (<1%) n (%)
same,TEAE incidence: Gastrointestinal Spastic and Hypermotility Disorders,21 (1%) n (%)
same,TEAE incidence: Gastrointestinal and Abdominal Pains (Excl Oral and Throat),223 (15%) n (%)
same,TEAE incidence: Gingival Disorders NEC,1 (<1%) n (%)
same,TEAE incidence: Gingivitis,1 (<1%) n (%)
same,TEAE incidence: Glossitis,1 (<1%) n (%)
same,TEAE incidence: Glucose Urine Present,2 (<1%) n (%)
same,TEAE incidence: Haematemesis,1 (<1%) n (%)
same,TEAE incidence: Haematological Analyses NEC,1 (<1%) n (%)
same,TEAE incidence: Haemoglobin Decreased,1 (<1%) n (%)
same,TEAE incidence: Haemorrhoidal Haemorrhage,9 (<1%) n (%)
same,TEAE incidence: Haemorrhoids,30 (2%) n (%)
same,TEAE incidence: Haemorrhoids Aggravated,1 (<1%) n (%)
same,TEAE incidence: Haemorrhoids and Gastrointestinal Varices (Excl Oesophageal),38 (3%) n (%)
same,TEAE incidence: Halitosis,2 (<1%) n (%)
same,TEAE incidence: Headache NOS Aggravated,2 (<1%) n (%)
same,TEAE incidence: Headaches NEC,104 (7%) n (%)
same,TEAE incidence: Herpes Simplex,3 (<1%) n (%)
same,TEAE incidence: Herpes Zoster,4 (<1%) n (%)
same,TEAE incidence: Hiatus Hernia,2 (<1%) n (%)
same,TEAE incidence: Hiccups,1 (<1%) n (%)
same,TEAE incidence: Hyperacidity,4 (<1%) n (%)
same,TEAE incidence: Hypersomnia,1 (<1%) n (%)
same,TEAE incidence: Hypoaesthesia,2 (<1%) n (%)
same,TEAE incidence: Hypoaesthesia Oral,1 (<1%) n (%)
same,TEAE incidence: Ileus Paralytic,1 (<1%) n (%)
same,TEAE incidence: Influenza,51 (4%) n (%)
same,TEAE incidence: Inguinal Hernia NOS,2 (<1%) n (%)
same,TEAE incidence: Inguinal Hernias,2 (<1%) n (%)
same,TEAE incidence: Intercostal Neuralgia,1 (<1%) n (%)
same,TEAE incidence: Intertrigo Candida,1 (<1%) n (%)
